In one data set the test system is A549 cells. As to the kind of experiment: MTT cell viability assay, A549 cells. In kind it is cell-based. The settings on record: Homo sapiens, 24 h, 0–200 µM, read-out: IC50 ± SEM of NSCLC cells, A549. The method, then:
(§1) NSCLC cells were cultured overnight and treated with various concentrations (0–200 µM) of resveratrol derivatives (RD1-RD5) and resveratrol for 24 h, and then cell viability was analyzed by the 3-(4, 5-dimethylthiazolyl-2)-2, 5-diphenyltetrazolium bromide (MTT) assay to evaluate the percentage of cell viability. All of the data were calculated on the basis of the results of three replicated samples. […] The difference of the structure at C-4 was that the hydroxyl group of RD2 was modified to the methoxy group of RD3 and at C-3, the methoxy group of RD2 was changed to the hydroxyl group of RD3. […] Furthermore, resveratrol decreased cell viability in NSCLC cells (A549, H23, and H460) with the IC50 at more than 200 µM which was the same RD3 (Figure 2a–d). This different action on cancer cells as a result of chemical structure modification has provided an insight for the structure–activity relationship that may facilitate the further development of the potent compound from the lead structure of resveratrol derivatives. Cell viability was investigated by MTT colorimetric assay. All cell lines were cultured at the density of 1 × 10^4 cells per well in a 96-well tissue culture plate and incubated in an incubator. After that, cells were treated with various concentrations of RD1-RD5 for 24 h at 37 °C and analyzed by the MTT assay according to the manufacturer’s protocol (Sigma Chemical, St. Louis, MO, USA). In calculating the cell viability by a microplate reader (Anthros, Durham, NC, USA), the measured absorbance of treated cells were divided by the value of untreated cells and are reported as a percentage.

A further data set deals with H23 cells. The data set can be described thus: MTT cell viability assay, H23 cells. In kind it is cell-based. The settings on record: Homo sapiens, NCI-H23, 24 h, 0–200 µM, read-out: IC50 ± SEM of NSCLC cells, H23. As for the experimental part:
as §1
A general note: Tetrazolium dyes change colour on reduction, which living cells bring about.

In the next data set the test system is H460 cells. The data set can be described thus: MTT cell viability assay, H460 cells. The settings on record: Homo sapiens, NCI-H460, 24 h, 0–200 µM, read-out: IC50 ± SEM of NSCLC cells, H460. Type of data set: cell-based. The method, then: as §1
The subject of a further data set is p-Akt/Akt in H23 cells. As to the kind of experiment: Western blot of p-Akt/Akt, H23 cells. In kind it is cell-based, human. To be noted: 100 μM, 12 h, vs untreated control. As for the experimental part:
(§2) NSCLC cells (A549 and H23) were treated with RD2 and RD3 (10–100 μM) for 12 h. After which, all cells were collected and the expression levels of Akt, p-Akt, mTOR, and p-mTOR were investigated by Western blot analysis (Figure 5a, Figure 6a, Figure 7a and Figure 8a). […] Immunofluorescence staining of Akt, p-Akt, mTOR, and p-mTOR was performed in RD2 and RD3 treated cells. The results further confirm the effect of RD2 and RD3 on the Akt/mTOR pathway.
(§3) Western blotting was used to detect the presence of specific protein. Cells were seed at a density of 4 × 10^5 cells/well in 6 well plates overnight. Cells were treated with various concentrations RD1-RD5 were treated for 12 h. After treatment, the apoptosis cells were collected by centrifuging media with 1500 rpm for 5 min and aspirating supernatants. Then, cells were washed with cold 1× PBS and incubated with 1X RIPPA 40 µL containing 10× RIPA buffer 100 µL, protease inhibitors (PI) 100 µL, PMSF 10 µL, and Triton × 10 µL for 30 min on ice. BCA protein assay kit from Pierce Biotechnology (Rockford, IL, USA) analyzed protein concentrations. The extracted proteins were separated by 7.5–10% sodium dodecyl sulfate polyacrylamide gel electrophoresis (SDS-PAGE) and transferred to polyvinylidene difluoride membrane (PVDF). Then, the membranes were blocked with 5% non-fat milk powder for 2 h. After that, they were incubated with primary antibody at 4 °C Akt (#9272), phosphorylated Akt (#4060), mTOR (#2983S), and p-mTOR (#5536S) overnight. The membranes were washed with Tris-buffered saline/Tween 20 3 times and incubated with secondary antibodies for 2 h. Finally, the protein bands were detected using chemiluminescence substrate and exposed by Chemiluminescent ImageQuant LAS4000. Protein bands were analyzed using Image J software.
In general terms: In western blotting, separated proteins are transferred to a membrane and probed.

For another data set, the system named is DP cells. The data set can be described thus: MTT cell viability assay, normal dermal papilla (DP) cells. In kind it is cell-based. The settings on record: 24 h. The method, then: To confirm the selective cytotoxicity of resveratrol derivatives (RD2 and RD3) in cancer cells, resveratrol derivatives (RD2 and RD3) and resveratrol were determined for the cytotoxic profile in normal human cells, dermal papilla (DP).
Cell viability was investigated by MTT colorimetric assay. All cell lines were cultured at the density of 1 × 10^4 cells per well in a 96-well tissue culture plate and incubated in an incubator. After that, cells were treated with various concentrations of RD1-RD5 for 24 h at 37 °C and analyzed by the MTT assay according to the manufacturer’s protocol (Sigma Chemical, St. Louis, MO, USA). In calculating the cell viability by a microplate reader (Anthros, Durham, NC, USA), the measured absorbance of treated cells were divided by the value of untreated cells and are reported as a percentage.

The test system of the next data set is p-Akt/Akt in A549 cells. The data set can be described thus: Western blot of p-Akt/Akt, A549 cells. In kind it is cell-based, human. The settings on record: A549 cells, 100 μM, 12 h, vs untreated control. As for the experimental part:
as §2, §3

Data set [1] deals with p-mTOR/mTOR in A549 cells. The data set can be described thus: Western blot of p-mTOR/mTOR, A549 cells. Type of data set: cell-based, human. To be noted: 100 μM, 12 h, vs untreated control. As for the experimental part:
as §2, §3

Another data set relates to p-mTOR/mTOR in H23 cells. The data set can be described thus: Western blot of p-mTOR/mTOR, H23 cells. Type of data set: cell-based, human. The settings on record: 100 μM, 12 h, vs untreated control. As for the experimental part:
as §2, §3

For `COc1cc(CCc2cc(C)c(OC)c(O)c2)cc(OC)c1O` [RD1, 5-(4-hydroxy-3,5-dimethoxyphenethyl)-2-methoxy-3-methylphenol], the IC50 in the data set on A549 cells was 164 ± 26.2 µM; with H23 cells it was 129 ± 8.91 µM; in the data set with H460 cells, more than 200 µM.
For the molecule `COc1ccc(CCc2cc(OC)c(O)c(OC)c2)cc1O` [RD4, 4-(3-hydroxy-4-methoxyphenethyl)-2,6-dimethoxyphenol], the IC50 was 113 ± 25.5 µM in the data set with A549 cells, 109 ± 17.3 µM in the data set on H23 cells and 122 ± 28.6 µM in the data set on H460 cells.
In the case of `COc1cc(CCc2cc(OC)c(O)c(OC)c2)cc(OC)c1O` [RD5, 4,4′-(ethane-1,2-diyl)bis(2,6-dimethoxyphenol)], the IC50 was determined as 185 ± 58.7 µM in the data set on A549 cells, 82.6 ± 13.1 µM in the data set on H23 cells and 153 ± 59.6 µM in the data set with H460 cells.
Consider `Oc1ccc(C=Cc2cc(O)cc(O)c2)cc1` [Resveratrol, 3,5,4′-trihydroxystilbene], for which the IC50 in the data set on A549 cells was more than 200 µM; in the data set with H23 cells, more than 200 µM; in the data set with DP cells (Human dermal papilla cell, 0–200 µM, read-out: IC50 ± SEM of DP cells) it was more than 200 µM; with H460 cells, more than 200 µM. Also, the “p-Akt/Akt protein expression levels” value with p-Akt/Akt in H23 cells and in the data set with p-Akt/Akt in A549 cells was “significant decrease” throughout. In addition, the “effect on cell viability percentages in DP cells” value in the data set with DP cells (normal human dermal papilla cells) is “did not significantly affect”. Moreover, the “p-mTOR/mTOR protein expression levels” value (in data set [1]; with p-mTOR/mTOR in H23 cells) was “significant decrease” in each case.

In general, IC50 refers to the concentration that gives 50% inhibition.

The values are drawn from article PMC9739815, “Akt/mTOR Targeting Activity of Resveratrol Derivatives in Non-Small Lung Cancer” (Molecules, 2022).
